Experiment [1] has as its system R5 strains (Bal, ADA, CSF-6 and BL-6). Description: HIV RT activity in MDM infected with R5 strains. It counts as cell-based. Conditions: 8 days after infection. How it is done: (§1) Based upon their differential use of the major HIV co-receptors, HIV isolates have been referred to as R5, X4 or R5X4 strains, respectively (29). The M-tropic (macrophage-tropic) R5 prototype strains (Bal and ADA), dual tropic strain (89.6) and X4 primary isolate (UG024), were obtained from the NIH AIDS Reagent Program. Primary M-tropic isolates (BL-6 and CSF-6) were isolated from the blood and cerebrospinal fluid cells, respectively, of a subject with AIDS. […] The cells were also incubated with SP and/or anti-SP antibody. In this case, SP was incubated with (1:1000 dilution in 10% FCS DMEM) or without anti-SP antibody at room temperature for 10 min and then the mixture was added to the cell cultures for 2 h. When the cells were treated with the combination of CP-96,345 and SP, or CP-96,345, SP and anti-SP antibody, CP-96,345 was incubated with the cell culture for 10 min and then SP was added to the MDM or CP-96,345, SP and anti-SP (1:1000 in 10% FCS DMEM) were incubated for 10 min at room temperature and the mixture was incubated with the MDM for 2 h before infection with HIV. Untreated MDM served as controls. The cells were treated prior to, during, and throughout the infection. […]

The subject of a further experiment is X4 strain (UG024). The experiment in a line: HIV RT activity in MDM infected with X4 strain. Type of experiment: cell-based. The settings on record: 8 days after infection. The procedure:
as §1

The next experiment has as its system CCR5. Description: Flow cytometry of CCR5 receptor expression on MDM. It counts as cell-based, human. How it is done:
The cells were removed from the culture plate and then resuspended in 100 μl of phosphate-buffered saline (PBS). After incubation with 20 μl of either anti-CCR5-FITC or anti-CXCR4-FITC or anti-CD4-FITC or anti-CD14-FITC for 45 min at 4° C., the cells were washed twice with PBS and fixed with 1% paraformaldehyde in PBS. Fluorescein-conjugated control antibodies were isotype-matched IgG. Fluorescence was analyzed on an EPICS-Elite flow cytometer (Beckman-Coulter Electronics, Hialeah, Fla.).
For orientation: Flow cytometry measures light scatter and fluorescence of single cells or particles in a stream.

For a further experiment, the system named is CCR5 mRNA. The experiment in a line: CCR5 mRNA expression in MDM by RT-PCR / real-time RT-PCR. It counts as cell-based, human. The settings on record: for relative CCR5 mRNA level (real-time RT-PCR): 4 hours. The procedure:
Total RNA was isolated from human peripheral blood MDM (10^6 cells) using Tri-Reagent (Molecular Research Center, Cincinnati, Ohio) as we previously reported (16).
Reverse transcription: Total RNA (1 μg) was reverse transcribed using Reverse Transcription System (Promega, Madison, Wis.) with the specific primers (antisense) for HIV gag (5′-[…]-[…]-3′; SEQ ID NO: 1) (27) or CCR5 (5′-[…]-3′; SEQ ID NO: 2) (32) for 1 h at 42° C. RT reactions was terminated by incubating the reaction mixture at 99° C. for 5 min and then kept at 4° C. The resulting cDNA was used as a template for PCR amplification or real time PCR quantification.
Polymerase chain reaction (PCR) analysis: PCR amplification of CCR5 and HIV gag cDNA was performed with one tenth of the cDNA for 35 cycles (CCR5) (32) or 40 cycles (gag) (27) using AmpliTaq Gold (Perkin ElmerCetus, Foster City, Calif.) in a GeneAmp PCR System 2400 (Perkin Elmer-Cetus). β-Actin was used as a control to monitor the amount and integrity of RNA in each sample (Clontech, Palo Alto, Calif.). Real time PCR was performed with one tenth of cDNA using ABI Prism 7700 Sequence Detection System (Perkin Elmer). The reaction mixture contained 0.25 mM of dNTPs, AmpliTaq Gold (1.5 U), 5 mM of MgCl2, 50 pmole of each of the two primers (SK38: 5′-[…]-3′(SEQ ID NO: 3); SK39: 5′-[…]-3′; SEQ ID NO: 4), 20 pmole of the molecular beacon probe (SK19: 5′[…]-3′; SEQ ID NO: 5) labeled with FAM (a fluorophore) at its 5′ end and DABCYL (a quencher) at the 3′end. The cycle conditions were 95° C. 10 min followed by 40 cycles of 95° C. 15 sec and 60° C. 1 min. The known amounts of HIV DNA isolated from ACH-2 cells were used as standard controls. All standards and samples were run in duplicates. HIV gag, CCR5, β-Actin primer pairs and the probe (SK19) were synthesized by Integrated DNA Technologies, Inc. (Coralville, Ind.).
For orientation: Real-time PCR tracks product formation cycle by cycle.

Experiment [2] has as its system luciferase-encoding HIV virions pseudotyped with ADA Env (CCR5-dependent). The experiment in a line: Pseudotype reporter virus entry assay, ADA Env. Type of experiment: cell-based. The procedure: (§2) Pseudotype reporter virus entry assay: Recombinant luciferase-encoding HIV virions pseudotyped with Env from the M-tropic ADA (CCR5-dependent) and amphitropic murine leukemia virus (MLV) (CCR5-independent) were used to study HIV infection of MDM incubated with or without CP-96,345 or R-113281. The Env-deleted luciferase reporter plasmid PNL-Luc-E-R+ (kindly provided by N. Landau) was cotransfected into 293T cells along with plasmids encoding the ADA or MLV Env genes as previously described (31). Supernatants were collected 48 h later, assayed for p24^Gag antigen content, and frozen at −80° C. MDM (2.5×10^5 cells/well, in 48-well plates) were incubated overnight with or without CP-96,345 or R-113281 and then infected using 20 ng of p24^Gag antigen equivalent of each pseudotype HIV per well, in the presence of polybrene (7.5 μg/ml). At 72 h postinfection, the cells were lysed in 150 μl of 0.5% Triton-X-100 in PBS. Lysate (50 μl) was mixed with an equal volume of luciferase substrate (Promega, […].) and luciferase activity was determined in a microtiter plate luminometer (Dynex Technologies, Chantilly, Va.). The results were expressed as relative light units (RLU) in CP-96,345-treated or R-113281-treated and infected MDM as a percentage of that in untreated and infected MDM.

Experiment [3] relates to luciferase-encoding HIV virions pseudotyped with MLV Env (CCR5-independent). The experiment in a line: Pseudotype reporter virus entry assay, MLV Env. It counts as cell-based. How it is done: as §2
Where [4] appears, read: R-113281 10^−7 and 10^−6 overnight pretreatment.
The mark [5] stands for this setting: CP-96,345 10^−8 and 10^−7 M overnight pretreatment.

Consider `COc1cc(C(=O)N2CCO[C@](CCN3CCC4(CC3)c3ccccc3C[S@+]4[O-])(c3ccc(Cl)c(Cl)c3)C2)cc(OC)c1OC.Cl` [R-113281], for which the “replication of R5 strains (HIV RT activity)” value in experiment [1] (R-113281 10^−6 M) is given as “inhibited”. In addition, the “replication of X4 strain (HIV RT activity)” value in the experiment with X4 strain (UG024) (R-113281 10^−6 M) is “not affected”. The “CCR5 protein expression (percentage of CCR5 positive cells, flow cytometry)” value in the experiment on CCR5 (R-113281 10^−6 M, 24 hours) was “inhibited”. The “relative CCR5 mRNA level (real-time RT-PCR)” value with CCR5 mRNA (R-113281 10^−8 M to 10^−6 M) is reported as “significantly down-regulated”. The “ADA Env-pseudotyped HIV infection of MDM (luciferase activity)” value in experiment [2] (setting [4]) was “inhibited”. For the same compound, the “MLV-Env pseudotyped HIV infection of MDM (luciferase activity)” value in experiment [3] (setting [4]) is given as “failed to block”.
Consider `COc1ccccc1CN[C@H]1C2CCN(CC2)[C@H]1C(c1ccccc1)c1ccccc1` [CP-96,345, [2S,3S)-cis-2-(diphenylmethyl)-N-[(2-methoxyphenyl)-methyl]-1-azabicyclo [[2.2.2]-octan-3-amine]], for which the “replication of R5 strains (HIV RT activity)” value in experiment [1] (CP-96,345 10^−7M) is “inhibited”. For the same compound, the “replication of X4 strain UG024 (HIV RT activity)” value with X4 strain (UG024) (CP-96,345 10^−7M) is on record as “not affected”. Besides, the “CCR5 receptor expression on MDM (percentage positive cells)” value with CCR5 (incubated overnight (24 h), direct immunofluorescence) was “down-regulated”. Also, in the experiment on CCR5 mRNA (10^−8 to 10^−6M, 3 h), the “CCR5 mRNA in MDM (RT-PCR)” value is given as “down-regulated”. Moreover, the “relative CCR5 mRNA level (real-time RT-PCR)” value in the experiment on CCR5 mRNA (CP-96,345 10^−7 M to 10^−6 M) is reported as “significantly down-regulated”. Besides, the “ADA Env-pseudotyped HIV infection of MDM (luciferase activity)” value in experiment [2] (setting [5]) is “inhibited”. Besides, in experiment [3] (setting [5]), the “MLV Env-pseudotyped HIV infection of MDM (luciferase activity)” value is “failed to block”.

The values above are taken from patent US6676950B2, “Neurokinin receptor antagonists and methods of use thereof for inhibiting HIV infection” (The Children's Hospital of Philadelphia, priority 2001, dated 2004).
